{"source": "patent EP0261891A2", "about": "“Pharmaceutical compositions containing etiochiolandione” (Progenics, Inc., priority 1986, dated 1988)", "key": {"[1]": {"details": "injection (i.m.) in man; cited from earlier work"}, "[2]": {"details": "compared with DHEA; cited from earlier work"}, "[3]": {"experiment": "Second study: body weight gain and food consumption in rats on higher-fat diet with steroid", "format": "in vivo, Sprague-Dawley rats", "details": "for FOOD CONSUMPTION: Av.Wks 1 - 4 (control 23.4)", "description": "A second study was carried out on male Sprague-Dawley rats with initial starting weight of 272 ± 5 gms. […] On the last day of the study the animals were dosed with approximately 1 micro Ci of ^3H labeled material (Amersham) corresponding to the treatment they had received. Groups of three animals- were sacrificed at 1 hour, 4 hours and 12 hours after dosing, and the adrenals, gonads, liver, epididymal fat pads, and blood collected for analysis. Urine and feces were also collected during the post-tracer dosing period."}, "[4]": {"experiment": "Absorption and blood level profiles after oral suspensions, three-way crossover; serum alpha-ET by RIA", "format": "in vivo, human", "details": "200 mg oral suspension, at 4 hours past administration", "procedure": "Each subject received all three drugs in randomized order with a one-week wash-out period between doses. Following an overnight fast, subjects received 200 mg of test drug suspended in approximately 6 oz of apple juice. Blood samples were drawn immediately prior to drug administration and at 15 minutes, 30 minutes, 1, 2, 4, 8, 12 and 24 hours."}, "[5]": {"experiment": "Weight gain, food consumption, fat pad and alpha-ET blood level in normal rats fed steroid in diet for three weeks", "format": "in vivo, Sprague-Dawley rats", "details": "for FOOD CONSUMPTION: 0.367% in diet (dose from method)", "description": "All of the above considerations make ET-dione not only suitable but preferred in the treatment of diabetes, obesity and blood suppressive disorders such as aplastic anemia.\nFood consumption and body weight were measured weekly. Blood samples were taken at the end of the study for assay of alpha-ET by RIA and measurement of serum total cholesterol, HDL-cholesterol and triglycerides. Liver weight (absolute and % of body weight), total cholesterol, % of esterified cholesterol and triglycerides in the liver were also determined. In addition, epididymal fat pad weights were measured."}}, "note": "Several values for one entry are separate records, joined by “and”; a condition that tells them apart may be missing. Equal values may be shown once.", "data": [{"smiles": "C[C@]12CC[C@H](O)C[C@H]1CC[C@@H]1[C@@H]2CC[C@]2(C)C(=O)CC[C@@H]12", "note": "[Beta-ET, 5-beta-androstan-3-beta-ol-17-one]", "values": [{"measurement": "pyrogenic effect", "setting": "[1]", "result": "little pyrogenic effect"}, {"measurement": "effectiveness in preventing the development of diabetes", "setting": "[2]", "result": "four times more effective than DHEA"}]}, {"smiles": "C[C@]12CCC(=O)C[C@H]1CC[C@@H]1[C@@H]2CC[C@]2(C)C(=O)CC[C@@H]12", "note": "[ET-dione, 5-beta-androstanedione]", "values": [{"measurement": "% W vs Control Day 28", "setting": "[3]; 0.4% in diet", "result": -18.6, "unit": "%"}, {"measurement": "FOOD CONSUMPTION", "setting": "[3]; 0.4% in diet", "result": 22.0, "unit": "g/day"}, {"measurement": "BODY WEIGHT GAINS", "setting": "[3]; 0.4% in diet, Day 7 (control 56)", "result": 44}, {"measurement": "BODY WEIGHT GAINS", "setting": "[3]; 0.4% in diet, Day 14 (control 109)", "result": 89}, {"measurement": "BODY WEIGHT GAINS", "setting": "[3]; 0.4% in diet, Day 21 (control 145)", "result": 117}, {"measurement": "BODY WEIGHT GAINS", "setting": "[3]; 0.4% in diet, Day 28 (control 183)", "result": 149}, {"measurement": "% W vs Control Day 28", "setting": "[3]; 0.8% in diet", "result": -21.3, "unit": "%"}, {"measurement": "FOOD CONSUMPTION", "setting": "[3]; 0.8% in diet", "result": 20.6, "unit": "g/day"}, {"measurement": "BODY WEIGHT GAINS", "setting": "[3]; 0.8% in diet, Day 7 (control 56)", "result": 34}, {"measurement": "BODY WEIGHT GAINS", "setting": "[3]; 0.8% in diet, Day 14 (control 109)", "result": 83}, {"measurement": "BODY WEIGHT GAINS", "setting": "[3]; 0.8% in diet, Day 21 (control 145)", "result": 112}, {"measurement": "BODY WEIGHT GAINS", "setting": "[3]; 0.8% in diet, Day 28 (control 183)", "result": 144}, {"measurement": "effectiveness in reducing weight gain compared with alpha-ET", "setting": "[3]; at all concentrations tested", "result": "almost twice as effective as alpha-ET"}, {"measurement": "free alpha-ET levels compared with alpha-ET or beta-ET administration", "setting": "[4]", "result": "significantly higher"}, {"measurement": "% W vs Control Day 21", "setting": "[5]; 0.367% in diet", "result": -16.6, "unit": "%"}, {"measurement": "FOOD CONSUMPTION", "setting": "[5]; Average, mean ± S.E. (control 25.6 ± 0.6), significantly different from control (p < 0.05)", "result": "23.4 ± 0.6", "unit": "g/rat/day"}, {"measurement": "FOOD CONSUMPTION", "setting": "[5]; week 1, mean ± S.E. (control 26.8 ± 0.8)", "result": "23.0 ± 0.6", "unit": "g/rat/day"}, {"measurement": "FOOD CONSUMPTION", "setting": "[5]; week 2, mean ± S.E. (control 24.9 ± 0.6)", "result": "24.6 ± 0.5", "unit": "g/rat/day"}, {"measurement": "FOOD CONSUMPTION", "setting": "[5]; week 3, mean ± S.E. (control […] ± 0.6)", "result": "22.6 ± 0.5", "unit": "g/rat/day"}, {"measurement": "Weight", "setting": "[5]; 0.367% in diet, Day 0, mean ± S.E.", "result": "260 ± 3", "unit": "g"}, {"measurement": "W(g) (weight gain)", "setting": "[5]; 0.367% in diet, Day 7 (control 48)", "result": 38, "unit": "g"}, {"measurement": "Weight", "setting": "[5]; 0.367% in diet, Day 7, mean ± S.E. (control 308 ± 5)", "result": "298 ± 2", "unit": "g"}, {"measurement": "W(g) (weight gain)", "setting": "[5]; 0.367% in diet, Day 14 (control 94)", "result": 81, "unit": "g"}, {"measurement": "Weight", "setting": "[5]; 0.367% in diet, Day 14, mean ± S.E. (control 354 ± 6)", "result": "341 ± 3", "unit": "g"}, {"measurement": "W(g) (weight gain)", "setting": "[5]; 0.367% in diet, Day 21 (control 121), significantly different from control (p < .05)", "result": "101 g and 101+ g"}, {"measurement": "Weight", "setting": "[5]; 0.367% in diet, Day 21, mean ± S.E. (control 381 ± 7)", "result": "361 ± 3", "unit": "g"}, {"measurement": "Fat Pad as % of Body Wt", "setting": "[5]; 0.367% in diet, three weeks (control 1.02 ± 0.08)", "result": "0.97 ± 0.07", "unit": "%"}, {"measurement": "Fat Pad Wt", "setting": "[5]; epididymal fat pad, 0.367% in diet, three weeks (control 3.88 ± 0.29)", "result": "3.50 ± 0.26", "unit": "g"}]}]}
